pIC50: −log10 of the molar value.
Key:
15-PGDH/HPGD = 15-PGDH/HPGD (Homo sapiens (Human), UniProt P15428); test: hPGDH inhibitor screening biochemical assay; settings: read-out: hPGDH: Average IC50
In short: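 Recombinant human 15-PGDH (10 nM) pre-incubated with compounds 10 min at 37 °C, then 15 μM PGE2 and 0.25 mM NAD+ added for 10 min at room temperature in 50 mM Tris-HCl pH 7.5, 0.01% Tween 20. NADH fluorescence read at ex/em 340/485 nm. IC50 from 10-point curves, four-parameter fit versus 1% DMSO.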

[1] = Liver microsome stability assay (RLM); assay type: in vitro ADME; settings: rat liver microsomes
Description: (§1) A microsomal mixture (microsomes and Kphos buffer) was prepared at a concentration of 1.428 mg/mL in 2 mL tubes. To this microsomal mixture 1.6 μL (1 mM) of test compound and positive control were spiked; from this mixture, 70 μL was transferred to 96 well plate and pre-incubated at 37° C. for 5 min. After pre-incubation, the zero minute time point reaction was stopped using 100 μL of ice-cold acetonitrile containing internal standard and […] (3.33 mM in Kphos buffer) was added. The 45 minute time point reaction was initiated by addition of 30 μL of NADPH (3.33 mM in Kphos buffer) and incubated at 37° C. for 15 and 45 min. Reactions without NADPH and buffer controls (minus NADPH) at 0, 15, and 45 minutes were also incubated to rule out non-NADPH metabolism or chemical instability in the incubation buffer. Incubation reactions were stopped with 100 μL of ice-cold acetonitrile containing internal standard. The plates were centrifuged at 4000 RPM for 15 min and 100 μL aliquots were submitted for analysis by LC-MS/MS. (Verapamil in human liver microsomes (HLM) and rat liver microsomes (RLM) was used as positive controls. Imipramine in mouse liver microsomes (MLM) was used as a positive control.) Samples were monitored for parent compound disappearance in MRM mode (multiple reaction monitoring) using LC-MS/MS. The peak area ratios of analyte versus internal standard were used to calculate the % remaining at the end of 45 minutes in the presence of NADPH.

[2] = Liver microsome stability assay (MLM); assay type: in vitro ADME; settings: mouse liver microsomes
Description: as §1

Chain of 15-PGDH/HPGD (P15428 whole entry): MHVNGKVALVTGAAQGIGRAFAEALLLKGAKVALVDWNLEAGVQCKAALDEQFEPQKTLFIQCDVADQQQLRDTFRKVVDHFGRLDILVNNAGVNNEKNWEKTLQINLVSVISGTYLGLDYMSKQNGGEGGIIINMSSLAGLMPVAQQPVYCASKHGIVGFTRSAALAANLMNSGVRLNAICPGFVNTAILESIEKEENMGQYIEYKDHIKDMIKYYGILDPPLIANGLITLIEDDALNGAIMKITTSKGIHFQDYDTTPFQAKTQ

Structure (SMILES) | pIC50 (15-PGDH/HPGD) | RLM + NADPH (% remaining at 45 min) [1] [%] | MLM + NADPH (% remaining at 45 min) [2] [%]
COc1ccc(-n2c(C)nc3cc(C(=O)N4CCC(F)CC4)ccc32)cc1 [MF-DH-187] | > 7.00 | 17 | 
COc1ccc(-n2ccc3cc(C(=O)N4CCC(F)CC4)ccc32)cc1 [MF-DH-189] | > 7.00 | 23 | 
COc1ccc(-n2cc(C)c3cc(C(=O)N4CCC(F)CC4)ccc32)cc1 [MF-DH-190, (4-fluoropiperidin-1-yl)(1-(4-methoxyphenyl)-3-methyl-1H-indol-5-yl)methanone] | > 7.00 | 29 | 
CCc1nc2cc(C(=O)N3CCC(F)CC3)ccc2n1-c1ccc(OC)cc1 [MF-DH-193] | > 7.00 | 0 | 
CCC(CC)n1cnc2cc(C(=O)N3CCC(F)CC3)cnc21 [MF-DH-201] | ≤ 6.00 | 48 | 
COc1ccc(-n2c(C)nc3cc(C(=O)N4CCCCC4)cnc32)cc1 [MF-DH-205] | > 7.00 | 78 | 
COc1ccc(-n2c(C)nc3cc(C(=O)N4CCCCC4)ccc32)cc1 [MF-DH-206] | > 7.00 | 9 | 
O=C(c1cnc2c(c1)ncn2-c1ccc(F)cc1)N1CCC(F)CC1 [MF-DH-214] | 6.00 to 7.00 | 60 | 
O=C(c1cnc2c(c1)ncn2-c1ccc(F)cc1)N1CCCCC1 [MF-DH-215] | > 7.00 | 45 | 
O=C(c1cnc2c(c1)ncn2-c1ccc(F)c(F)c1)N1CCC(F)CC1 [MF-DH-216] | 6.00 to 7.00 | 64 | 
O=C(c1cnc2c(c1)ncn2-c1ccc(F)c(F)c1)N1CCCCC1 [MF-DH-217] | > 7.00 | 34 | 
O=C(c1cnc2c(c1)ncn2-c1ccc(OC(F)(F)F)cc1)N1CCC(F)CC1 [MF-DH-218] | 6.00 to 7.00 | 34 | 
O=C(c1cnc2c(c1)ncn2-c1ccc(OC(F)(F)F)cc1)N1CCCCC1 [MF-DH-219] | > 7.00 | 26 | 
O=C(c1cnc2c(c1)ncn2-c1ccc(OC(F)F)cc1)N1CCCCC1 [MF-DH-223] | > 7.00 | 74 | 
CCOc1ccc(-n2cnc3cc(C(=O)N4CCCCC4)cnc32)cc1 [MF-DH-225] | > 7.00 | 40 | 
O=C(c1cnc2c(c1)ncn2-c1cccc(OC(F)(F)F)c1)N1CCCCC1 [MF-DH-227] | 6.00 to 7.00 | 48 | 

Structure (SMILES) | pIC50 (15-PGDH/HPGD) | RLM + NADPH (% remaining at 45 min) [1] [%] | MLM + NADPH (% remaining at 45 min) [2] [%]
O=C(c1cnc2c(c1)ncn2-c1cccc(OC(F)F)c1)N1CCC(F)CC1 [MF-DH-228] | 6.00 to 7.00 | 69 | 
O=C(c1cnc2c(c1)ncn2-c1cccc(OC(F)F)c1)N1CCCCC1 [MF-DH-229] | 6.00 to 7.00 | 39 | 
CCC(CC)n1cnc2cc(C(=O)N3CCCCC3)ccc21 [MF-DH-237] | > 7.00 | 0 | 
O=C(Nc1ccn(C2CC2)n1)c1cccc(-n2ccc3cc(C(=O)N4CCC(F)(F)CC4)cnc32)c1 [MF-DH-499, N-(1-cyclopropyl-1H-pyrazol-3-yl)-3-(5-(4,4-difluoropiperidine-1-carbonyl)-1H-pyrrolo[2,3-b]pyridin-1-yl)benzamide] | > 7.00 |  | 15
O=C(Nc1ccn(C2CC2)n1)c1cncc(-n2ccc3cc(C(=O)N4CCC(F)(F)CC4)cnc32)c1 [MF-DH-500, N-(1-cyclopropyl-1H-pyrazol-3-yl)-5-(5-(4,4-difluoropiperidine-1-carbonyl)-1H-pyrrolo[2,3-b]pyridin-1-yl)nicotinamide] | > 7.00 |  | 60
O=C(O)c1cccc(-n2ccc3cc(C(=O)N4CCC(F)(F)CC4)cnc32)c1 [MF-DH-507, 3-(5-(4,4-difluoropiperidine-1-carbonyl)-1H-pyrrolo[2,3-b]pyridin-1-yl)benzoic acid] | > 7.00 |  | 97
O=C(c1cnc2c(ccn2-c2ccc(-c3nn[nH]n3)cc2)c1)N1CCC(F)(F)CC1 [MF-DH-514, (1-(4-(2H-tetrazol-5-yl)phenyl)-1H-pyrrolo[2,3-b]pyridin-5-yl)(4,4-difluoropiperidin-1-yl)methanone] | > 7.00 |  | 110
O=C(c1cnc2c(ccn2-c2cccc(-c3nn[nH]n3)c2)c1)N1CCC(F)(F)CC1 [MF-DH-515, (1-(3-(2H-tetrazol-5-yl)phenyl)-1H-pyrrolo[2,3-b]pyridin-5-yl)(4,4-difluoropiperidin-1-yl)methanone] | > 7.00 |  | 103
O=C(c1cnc2c(ccn2-c2cncc(-c3nc[nH]n3)c2)c1)N1CCC(F)(F)CC1 [MF-DH-516, (1-(5-(1H-1,2,4-triazol-3-yl)pyridin-3-yl)-1H-pyrrolo[2,3-b]pyridin-5-yl)(4,4-difluoropiperidin-1-yl)methanone] | > 7.00 |  | 88
O=C(c1cnc2c(ccn2-c2cncc(-c3n[nH]c(C4CC4)n3)c2)c1)N1CCC(F)(F)CC1 [MF-DH-517, (1-(5-(5-cyclopropyl-1H-1,2,4-triazol-3-yl)pyridin-3-yl)-1H-pyrrolo[2,3-b]pyridin-5-yl)(4,4-difluoropiperidin-1-yl)methanone] | > 7.00 |  | 47
O=C(c1cnc2c(ccn2-c2ccc(-c3n[nH]c(C4CC4)n3)nc2)c1)N1CCC(F)(F)CC1 [MF-DH-518, (1-(6-(5-cyclopropyl-1H-1,2,4-triazol-3-yl)pyridin-3-yl)-1H-pyrrolo[2,3-b]pyridin-5-yl)(4,4-difluoropiperidin-1-yl)methanone] | > 7.00 |  | 92
O=C(c1cnc2c(ccn2-c2ccc(-c3nnc(C(F)(F)F)[nH]3)nc2)c1)N1CCC(F)(F)CC1 [MF-DH-519, (4,4-difluoropiperidin-1-yl)(1-(6-(5-(trifluoromethyl)-4H-1,2,4-triazol-3-yl)pyridin-3-yl)-1H-pyrrolo[2,3-b]pyridin-5-yl)methanone] | > 7.00 |  | 89
CC(C)(C)c1ccc(NC(=O)c2cncc(-n3ccc4cc(C(=O)N5CCC(F)(F)CC5)cnc43)c2)cn1 [MF-DH-520, N-(6-(tert-butyl)pyridin-3-yl)-5-(5-(4,4-difluoropiperidine-1-carbonyl)-1H-pyrrolo[2,3-b]pyridin-1-yl)nicotinamide] | > 7.00 |  | 38
CC(C)(O)CNC(=O)c1cc(Cl)cc(-n2ccc3cc(C(=O)N4CCC(F)(F)CC4)cnc32)c1 [MF-DH-521] | > 7.00 |  | 84
CC(C)(O)CCc1cc2cc(C(=O)N3CCC(F)(F)CC3)cnc2n1-c1ccc(C(=O)O)cc1 [MF-DH-538, 4-(5-(4,4-difluoropiperidine-1-carbonyl)-2-(3-hydroxy-3-methylbutyl)-1H-pyrrolo[2,3-b]pyridin-1-yl)benzoic acid] | > 7.00 |  | 91
Cc1nc(-c2ccc(-n3c(CCC(C)(C)O)cc4cc(C(=O)N5CCC(F)(F)CC5)cnc43)cc2)no1 [MF-DH-542, (4,4-difluoropiperidin-1-yl)(2-(3-hydroxy-3-methylbutyl)-1-(4-(5-methyl-1,2,4-oxadiazol-3-yl)phenyl)-1H-pyrrolo[2,3-b]pyridin-5-yl)methanone] | > 7.00 |  | 68

— US11345702B1 (Myoforte Therapeutics, Inc., priority 2020, dated 2022)
